How the values were obtained:
[1] = test system: HUVEC cells; experiment: HUVEC integrity in RTCA-DP system (normalized cell index); format: cell-based, human
Experimental: The effects of sulfonamides 1–8 on the integrity and barrier properties of HUVEC were examined in real-time using a cell electric impedance monitoring system (Real-Time Cell Analyzer; Roche & ACEA Biosciences, Santa Clara, CA, USA), which is based on tracking electrical impedance signals. Any changes in cell status, adhesion, and morphology are expressed by parameter Cell Index (CI). The experimental protocol has been described previously. Briefly, the cells were seeded at a density of 15,000 cells per well on E-16 plates (Roche & ACEA Biosciences, Santa Clara, CA, USA), and cultured until the cells achieved plateau phase. Then, the medium was discarded from each well, and the solutions of the test compounds dissolved in cell culturing medium (100 μL) or pure medium (100 μL, control) were added. The measurements were then carried out for 48 h. The results are presented as mean ± SD of ‘normalized cell index’ (nCI), which is calculated by the division of a CI value at a certain time point by the CI value at a reference time point. The experiments were conducted in multiplicate (n = 4–6). The method was validated and the coefficient of variability (CV) was calculated as 9.17%–15.2%, depending on the measured time point (n = 6).

[2] = test system: AoSMC cells; experiment: WST-1 cell viability assay, AoSMC; conditions: Homo sapiens, 24 h, read-out: Viability-IC50, AoSMC cells
Experimental: (§1) HUVEC and AoSMC viability were tested using the WST-1 cell viability assay (Takara Bio Europe, Saint-Germain-en-Laye, France). […] Briefly, HUVEC and AoSMC were seeded at densities of 7500 and 5000 cells per well on 96-well plates. The cells were cultivated for up to 24 h to achieve 70% confluency, and subsequently treated with tested compounds diluted in medium (1 + 9; v = 100 μL) or pure medium (control). The plates were incubated at 37 °C (5% CO2) for the next 24 h. Then, the cells were rinsed with 100 μL culture medium, and WST-1 reagent diluted in medium (100 μL) was added; the plates were then incubated again (37 °C, 5% CO2) for another 90 min. The absorbance was measured at 450 nm (iMARK, Bio-Rad, Hercules, CA, USA). The experiments were performed in multiplicate (n = 8) and the results were presented as mean ± SD. The cell viability was expressed as a percentage of the control samples, which constituted 100% viability. […] The variability coefficient of the method was estimated (CV(HUVEC) = 8.94%, n = 8; CV(AoSMC) = 5.84%, n = 10).

[3] = test system: HUVEC cells; experiment: WST-1 cell viability assay, HUVEC; conditions: Homo sapiens, HUVEC, 24 h, read-out: Viability-IC50, HUVEC cells
Experimental: as §1

[4] = test system: HUVEC cells; experiment: Glucose utilization assay (2-NBDG uptake); format: cell-based, human; conditions: 24 h, then insulin and 2-NBDG
Experimental: HUVEC were seeded at a density of 20,000 cells per well in 48-well plates, and were cultured in standard conditions for 24 h (medium EGM-2; volume 0.2 mL). Following this, compounds 1–8 were added at concentrations of 0.1 and 0.3 mM, and the HUVECs were incubated for another 24 h. Cells treated with ᴅ-glucose (final concentration in a sample 0.1 mM) were used as positive controls. On the following day, the cells were rinsed with PBS (Biomed Lublin, Lublin, Poland) and cultured for two hours in glucose-free DMEM medium supplemented with 1% BSA (bovine serum albumin, Sigma, St. Louis, MO, USA). Then, the cells were co-treated with insulin (final concentration 0.0001 mM) for 30 min. Afterwards, the medium was discarded and the cells were treated with 2-NBDG (final concentration 0.05 mM) for 30 min, followed by removal of the solutions of each well. The cells were washed twice with 100 µL PBS, and lysed using 1% Triton X-100 solution in PBS. The fluorescence was recorded using a microplate reader (Biotek, Instruments, Winooski, VT, USA) at 480/530 nm.
The concentration of intracellular 2-NBDG was calculated using a calibration curve obtained using 2-NBDG at concentrations ranging from 0.0001 to 0.025 mM in lysis buffer. The results are presented as mean ± SD, n = 4–6. The coefficient of variation for the assay was calculated (CV = 2.2%, n = 8).

[5] = test system: HUVEC cells; conditions: 0.006–1.5 mM; cited from earlier work
[6] = test system: AoSMC cells; conditions: cited from earlier work
[7] = test system: tissue plasminogen activator (t-PA) release from HUVEC; conditions: cited from earlier work
[8] = test system: HUVEC cells; conditions: cited from earlier work
[9] = test system: clot formation and fibrinolysis in human citrate plasma; conditions: over the entire concentration range; cited from earlier work
[10] = test system: HUVEC cells; experiment: HUVEC migration, wound-healing assay (JuLI Stage); format: cell-based, human
Experimental: The effects of compounds 1–5 on HUVEC migration were determined using the JuLI™ Stage system (NanoEntek, Seoul, Korea): a real-time cell history recorder allowing for live cell imaging and analysis. The procedure for the migration experiments has been published elsewhere in more detail. Concisely, HUVECs were seeded at a density of 10,000 cells per well on 96-well plates and incubated at standard conditions for 24 h. Following this, a wound was made with a scratcher (NanoEntek, Seoul, Korea). The cells were then rinsed with 100 μL of fresh EGM2 medium, and treated with biguanides 1–5 at the concentrations of 0.3 and 1.0 mM. The cells were incubated and monitored continuously every 10 min for 36 h at 37 °C, 5% CO2. Analysis of obtained images of cell migration, and measurements of the width of the scratch area were performed using dedicated software (NanoEntek, Seoul, Korea). The results were presented as mean ± SD, n = 4–8. The CV for the method was estimated as 14.2–24.4%, depending on the time point (n = 8).

Structure (SMILES) | normalized Cell Index (nCI) ([1]; 0.3 mM, 3 hours) | normalized Cell Index (nCI) ([1]; 0.3 mM, 6 hours) | normalized Cell Index (nCI) ([1]; 0.3 mM, 12 hours) | normalized Cell Index (nCI) ([1]; 0.3 mM, 24 hours) | normalized Cell Index (nCI) ([1]; 0.3 mM, 36 hours) | normalized Cell Index (nCI) ([1]; 1.0 mM, 3 hours) | normalized Cell Index (nCI) ([1]; 1.0 mM, 6 hours) | normalized Cell Index (nCI) ([1]; 1.0 mM, 12 hours) | normalized Cell Index (nCI) ([1]; 1.0 mM, 24 hours) | normalized Cell Index (nCI) ([1]; 1.0 mM, 36 hours) | IC50 [2] [mM] | IC50 [3] [µM] | Glucose uptake (intracellular 2-NBDG) ([4]; 0.1 mM) [mM] | Glucose uptake (intracellular 2-NBDG) ([4]; 0.3 mM) [mM] | also measured
CN(C)C(=N)N=C(N)NS(=O)(=O)c1ccc(C#N)cc1 [Compound 8] | 0.312 ± 0.087 | 0.461 ± 0.015 | 0.416 ± 0.062 | 0.321 ± 0.038 | 0.198 ± 0.055 | 0.006 ± 0.004 | 0.029 ± 0.006 | 0.021 ± 0.004 | 0.001 ± 0.001 | 0.001 ± 0.001 | 1.57 ± 0.14 | 791 ± 130 | 0.0131 ± 0.0009 | 0.0138 ± 0.0015 | 
CN(C)C(=N)N=C(N)NS(=O)(=O)c1cccc(C#N)c1 [Compound 7] | 0.283 ± 0.050 | 0.367 ± 0.027 | 0.333 ± 0.030 | 0.255 ± 0.26 | 0.094 ± 0.014 | 0.013 ± 0.004 | 0.018 ± 0.001 | 0.020 ± 0.001 | 0.016 ± 0.002 | 0.013 ± 0.003 | 1.89 ± 0.16 | 304 ± 120 | 0.0131 ± 0.0013 | 0.0139 ± 0.001 | 
CN(C)C(=N)N=C(N)NS(=O)(=O)c1ccccc1C#N [Compound 6] | 0.317 ± 0.050 | 0.424 ± 0.053 | 0.388 ± 0.07 | 0.280 ± 0.018 | 0.111 ± 0.026 | 0.010 ± 0.003 | 0.016 ± 0.005 | 0.019 ± 0.005 | 0.013 ± 0.003 | 0.009 ± 0.003 | 1.68 ± 0.21 | 461 ± 130 | 0.0128 ± 0.0007 | 0.0129 ± 0.0007 | 
CN(C)C(=N)N=C(N)N [Metformin, dimethyl biguanide, reference compound] |  |  |  |  |  |  |  |  |  |  |  |  | 0.0146 ± 0.0009 | 0.0165 ± 0.0006 | effect on integrity and adherence of HUVEC cells [5]: not found to affect; effect on viability and morphology of AoSMC cells [6]: not affect; effect on t-PA release [7]: significantly elevate; effect on viability and morphology of HUVEC cells [8]: not affect; effect on overall potential of clot formation and fibrinolysis (CLAUC) [9]: did not affect; wound width ([10]; 0.3 mM, 6 hours): 570.1 ± 119.9 µm; wound width ([10]; 0.3 mM, 12 hours): 467.8 ± 106.5 µm; wound width ([10]; 0.3 mM, 18 hours): 412.1 ± 121.8 µm; wound width ([10]; 0.3 mM, 24 hours): 405.0 ± 120.7 µm; wound width ([10]; 0.3 mM, Start): 728.6 ± 62.5 µm; wound width ([10]; 1.0 mM, 6 hours): 565.4 ± 31.5 µm; wound width ([10]; 1.0 mM, 12 hours): 495.7 ± 20.0 µm; wound width ([10]; 1.0 mM, 18 hours): 482.7 ± 10.0 µm; wound width ([10]; 1.0 mM, 24 hours): 419.8 ± 42.3 µm; wound width ([10]; 1.0 mM, Start): 670.4 ± 29.2 µm
OC[C@H]1OC(O)[C@H](O)[C@@H](O)[C@@H]1O (stereo partly drawn) [D-glucose, reference compound] |  |  |  |  |  |  |  |  |  |  |  |  | 0.0014 ± 0.0001 |  | 

— article PMC9029893 (International Journal of Molecular Sciences, 2022)
